The values below come from DBAASP.

Test systems include Staphylococcus aureus; Streptococcus sanguinis; Bacillus subtilis; Escherichia coli; Escherichia coli UB1005; Escherichia coli K88; Klebsiella pneumoniae; Escherichia coli K99; Acinetobacter baumannii; Pseudomonas aeruginosa.
What all share (experiment): ≥ marks a high value that may be exact or a test limit, other limits are often not marked, values filed in µg/mL are converted to µM
In assay [1] the test system is Escherichia coli CIP 54.8T.
The test system of assay [2] is Enterococcus faecalis CIP 76.117.
For assay [3], the system named is Salmonella typhimurium CIP 103446.
The test system of assay [4] is Aeromonas salmonicida CIP 103209T.
In assay [5] the test system is Bacillus megaterium CIP 51.17.
The test system of assay [6] is Listeria monocytogenes CIP 110871.
Assay [7] relates to Staphylococcus aureus CIP 53.156.
Assay [8] has as its system Enterococcus faecalis ATCC 29212.
The subject of assay [9] is Klebsiella pneumoniae ATCC 13883.
The subject of assay [10] is Streptococcus pyogenes ATCC 19615.
Assay [11] deals with Staphylococcus aureus ATCC 25923.
Assay [12] concerns Staphylococcus epidermidis ATCC 51625.
Assay [13] concerns Salmonella enterica subsp. enterica serovar Typhimurium ATCC 14028.
Assay [14] has as its system Staphylococcus aureus ATCC BAA-44.
In assay [15] the test system is Pseudomonas aeruginosa ATCC 27853.
Assay [16] deals with Escherichia coli ATCC 25922.
The test system of assay [17] is Listeria monocytogenes EGD.
The subject of assay [18] is Salmonella enterica subsp. enterica serovar Typhimurium C77-31.
Assay [19] concerns Pseudomonas aeruginosa PAO1.
The test system of assay [20] is Pseudomonas aeruginosa CICC 21625.
The subject of assay [21] is Salmonella enterica subsp. enterica serovar Pullorum C79-13.
Assay [22] concerns Pseudomonas aeruginosa CICC 21630.

In brackets after ≈: the same amount, converted by molar mass.

Usually MIC stands for the lowest concentration that inhibits growth of the organism. In the case of `CC(C)C[C@H](N)C(=O)N[C@@H](Cc1ccccc1)C(=O)N[C@@H](Cc1ccccc1)C(=O)N[C@@H](Cc1ccccc1)C(=O)N[C@@H](Cc1ccccc1)C(=O)N[C@@H](Cc1ccccc1)C(N)=O` [LFFFFF], the results for the MIC against Staphylococcus aureus and in the assay on Streptococcus sanguinis were 29.4 µM (≈ 25.5 µg/mL) and ≥ 32.6 µM, respectively.

For `CC[C@H](C)[C@H](NC(=O)[C@H](CC(C)C)NC(=O)[C@H](Cc1cnc[nH]1)NC(=O)[C@H](Cc1ccccc1)NC(=O)[C@H](CO)NC(=O)[C@@H](NC(=O)[C@H](CO)NC(=O)CN)[C@@H](C)O)C(=O)N[C@@H](Cc1ccc(O)cc1)C(=O)N[C@@H](CC(N)=O)C(=O)N[C@@H](CCCCN)C(=O)N[C@@H](Cc1c[nH]c2ccccc12)C(=O)N[C@@H](Cc1ccccc1)C(=O)N[C@@H](C)C(=O)N[C@H](C(=O)N[C@@H](CCCCN)C(=O)N[C@@H](CCCN=C(N)N)C(=O)N[C@@H](CCCN=C(N)N)C(=O)N[C@@H](CCCN=C(N)N)C(=O)N[C@@H](CCCCN)C(=O)N[C@@H](CCCN=C(N)N)C(=O)O)C(C)C` [GSTSFHLIYNKWFAVKRRRKR], the MIC was 3.16 µM (≈ 8.38 µg/mL) in assay [1]; ≥ 86.6 µM in [2]; ≥ 50 µM in assay [3]; 5 µM (≈ 13.3 µg/mL) in [4]; 3.16 µM (≈ 8.38 µg/mL) in assay [5]; ≥ 35.4 µM in assay [6]. The same molecule had an MIC in [7] of 5.1 µM (≈ 13.5 µg/mL).

Regarding `NC(=O)[C@H](Cc1ccccc1)NC(=O)[C@H](Cc1ccccc1)NC(=O)[C@H](Cc1ccccc1)NC(=O)[C@H](Cc1ccccc1)NC(=O)[C@H](Cc1ccccc1)NC(=O)[C@H](Cc1ccccc1)NC(=O)[C@@H](N)Cc1ccccc1` [FFFFFFF], the MIC against Staphylococcus aureus and against Streptococcus sanguinis was 3.3 µM (≈ 3.46 µg/mL) in each case.

`CC(C)C[C@H](NC(=O)[C@H](CO)NC(=O)[C@H](CCCN=C(N)N)NC(=O)[C@H](CCCCN)NC(=O)[C@@H](NC(=O)[C@@H](NC(=O)CNC(=O)[C@H](CCCN=C(N)N)NC(=O)[C@H](Cc1cnc[nH]1)NC(=O)[C@H](Cc1c[nH]c2ccccc12)NC(=O)[C@H](Cc1ccccc1)NC(=O)[C@H](Cc1cnc[nH]1)NC(=O)[C@H](Cc1ccc(O)cc1)NC(=O)[C@@H](N)Cc1ccc(O)cc1)C(C)C)[C@@H](C)O)C(=O)N[C@@H](CO)C(=O)N1CCC[C@H]1C(=O)N[C@@H](Cc1cnc[nH]1)C(=O)N[C@@H](CCCN=C(N)N)C(=O)N1CCC[C@H]1C(=O)N[C@@H](CCCN=C(N)N)C(=O)N[C@@H](Cc1cnc[nH]1)C(=O)N[C@@H](CO)C(=O)N[C@@H](CCCN=C(N)N)C(=O)O` [YYHFWHRGVTKRSLSPHRPRHSR]: the MIC worked out at 4 µM (≈ 11.8 µg/mL) in [8]; 2 µM (≈ 5.92 µg/mL) in assay [9]; 6 µM (≈ 17.8 µg/mL) in assay [10]; 4 µM (≈ 11.8 µg/mL) against Bacillus subtilis; 4 µM (≈ 11.8 µg/mL) in [11]; 6 µM (≈ 17.8 µg/mL) in [12]. Also, the MIC in assay [13] is 4 µM (≈ 11.8 µg/mL); in [14] it was 6 µM (≈ 17.8 µg/mL); against Escherichia coli, 4 µM (≈ 11.8 µg/mL); in assay [15] it was 4 µM (≈ 11.8 µg/mL).

On to `CC(C)C[C@H](NC(=O)[C@H](CC(C)C)NC(=O)[C@H](CCC(N)=O)NC(=O)[C@H](CCCCN)NC(=O)[C@H](CC(C)C)NC(=O)[C@H](CCCCN)NC(=O)[C@H](CCCCN)NC(=O)[C@@H](N)CC(C)C)C(=O)NCC(=O)N[C@@H](CCCCN)C(=O)N[C@@H](CC(C)C)C(=O)N[C@@H](CO)C(=O)N[C@@H](CCC(=O)O)C(=O)N[C@@H](Cc1ccccc1)C(=O)N[C@@H](C)C(=O)N[C@@H](C)C(=O)N[C@@H](C)C(=O)N[C@@H](Cc1ccccc1)C(=O)N[C@H](C(=O)N[C@@H](C)C(N)=O)C(C)C` [LKKLKQLLGKLSEFAAAFVA], for which the MIC in [11] was found to be 32 µM (≈ 69.6 µg/mL); in assay [16], 32 µM (≈ 69.6 µg/mL); in assay [15], 16 µM (≈ 34.8 µg/mL); in assay [17], 8 µM (≈ 17.4 µg/mL).

Consider `CC(C)C[C@H](NC(=O)[C@H](C)NC(=O)[C@@H](NC(=O)[C@H](C)NC(=O)[C@H](CC(C)C)NC(=O)[C@H](CCCCN)NC(=O)[C@H](Cc1ccccc1)NC(=O)[C@H](CCCCN)NC(=O)[C@H](C)NC(=O)[C@@H](N)CO)C(C)C)C(=O)NCC(=O)N[C@@H](CCC(N)=O)C(=O)N[C@@H](Cc1ccccc1)C(=O)N[C@@H](CCCCN)C(=O)N[C@@H](CCC(=O)O)C(=O)N[C@@H](CCCCN)C(=O)N[C@@H](CC(C)C)C(=O)N[C@@H](CC(C)C)C(=O)N[C@@H](CC(C)C)C(=O)N[C@@H](C)C(N)=O` [SAKFKLAVALGQFKEKLLLA], for which the minimum inhibitory concentration (MIC) in [17] was ≥ 128 µM.

Regarding `CC[C@H](C)[C@H](N)C(=O)N[C@@H](CCCCN)C(=O)N1CCC[C@H]1C(=O)N[C@H](C(=O)N[C@H](C(=O)N[C@@H](CCCCN)C(=O)N1CCC[C@H]1C(=O)N[C@H](C(=O)N[C@H](C(=O)N[C@@H](CCCCN)C(=O)N1CCC[C@H]1C(=O)N[C@H](C(=O)N[C@H](C(=O)N[C@@H](CCCCN)C(=O)N1CCC[C@H]1C(=O)N[C@H](C(N)=O)[C@@H](C)CC)[C@@H](C)CC)[C@@H](C)CC)[C@@H](C)CC)[C@@H](C)CC)[C@@H](C)CC)[C@@H](C)CC` [IKPIIKPIIKPIIKPI], the MIC in assay [18] is ≥ 64 µM; against Escherichia coli UB1005, ≥ 64 µM; in assay [19], > 64 µM; in the assay with Escherichia coli K88 it was ≥ 64 µM; in assay [16], > 64 µM; in [20], ≥ 64 µM. Also, the MIC is > 64 µM in assay [13]; > 64 µM against Klebsiella pneumoniae; ≥ 64 µM in [21]; ≥ 64 µM in the assay with Escherichia coli K99; > 64 µM in the assay with Escherichia coli; ≥ 64 µM against Acinetobacter baumannii. Moreover, the MIC is > 64 µM against Pseudomonas aeruginosa, ≥ 64 µM in [22] and > 64 µM in [15].
